Test results from publication PMC10376059, “New NADPH Oxidase 2 Inhibitors Display Potent Activity against Oxidative Stress by Targeting p22^phox-p47^phox Interactions” (Antioxidants, 2023).

Experiments:
[1] = DPPH radical scavenging activity; format: physicochemical; conditions: for antioxidant effects in the pharmacological range (in words): up to 50 μM
Procedure: The newly synthesized compounds were evaluated for 2,2-diphenyl-1-picrylhydrazyl […] free radical scavenging activity. The reduction and stabilization of DPPH by antioxidant compounds lead to discoloration, resulting in a decrease in absorbance at 517 nm, which was expressed as a percentage of the radical solution at a given concentration of discoloration. The heteroarylacrylonitrile derivatives were re-suspended in a minimum of DMSO at a final concentration of 5 mg/mL (stock solution). From these, they were diluted to concentrations of 1000, 500, and 100 μg/mL. These solutions were mixed with a methanol solution of DPPH (20 μg/mL) for 5 min. Each compound was evaluated in triplicate; absorbance at 517 nm in a UNICAM UV/visible spectrophotometer Helios-α (Thermo Electron Corporation, Waltham, MA USA) was measured by subtracting the solvent absorbance and comparing the resulting value with that of a blank sample. The percentage of discoloration was established according to the following formula: % Radical removal or discoloration = (1 − (AM − ABM)/AC) × 100, where AM is the absorbance of the sample compound, ABM is the absorbance of the sample blank, and AC is the absorbance of the control. The degree of discoloration indicates the efficacy of the compounds studied as free radical scavengers; therefore, a percentage of discoloration of 100 indicates the maximum radical scavenging capacity and a value close to 0 indicates a zero radical scavenging capacity. Quercetin was used as a reference compound in a concentration range of 1.25 to 7.5 μg/mL.

HL-60 cells = test: MTT cytotoxicity assay; format: cell-based, human; conditions: 72 h; for cytotoxicity (in words): 0.01 µM to 100 µM, MTT
Procedure: To verify the cytotoxicity of the acrylonitrile derivatives, the MTT reduction method was performed. Briefly, HL-60 cells were seeded in a flat-bottomed 96-well plate at a density of 10,000 cells per well. […] In a second series of experiments, cells were incubated under the same conditions but for 72 h. Etoposide was used as a positive control. Ten μL of MTT was added at a final concentration of 0.5 mg/mL, incubated at 37 °C for 4 h, and then solubilized with 10% SDS in 0.1 mM HCl and incubated overnight at 37 °C. Finally, a blue-colored compound (formazan) formation was measured at 570 nm in a multiplate reader (StatFax 4200, Awareness Technology, Inc., Palm City, FL, USA). The viability percentage was obtained as follows: Viability % = [treated cells DO × 100]/[DO cells control].

[2] = test system: cardiomyocytes isolated from mdx mice; test: NOX2-mediated ROS production (DCF-DA, confocal) in mdx cardiomyocytes; format: cell-based, mouse; conditions: 1 µM, vs control
Text: Cardiomyocytes were isolated from mdx mice (C57BL/10ScSn-DMDmdx/J, stock number 001801M, Jackson Laboratories, Bar Harbor, […], USA). Male mdx mice of 19 months of age were used, which were housed in individual cages with water and food ad libitum. All the procedures were adjusted to the “Guide for the Care and Use of Laboratory Animals” (1996) of the National Institute of Health and were approved by the Institutional Committee for Animal Care and Use of the Universidad de Talca. Mice were pre-medicated with heparin i.p. (200U.) and then sacrificed by cervical dislocation. The heart was rapidly removed, cannulated through the aorta, and retrogradely perfused in a steady flow (2 mL/min) at 37 °C. The hearts were initially perfused for 10 min with a Ca^2+-free bicarbonate buffer solution containing (in mM) 120 NaCl; 5.4 KCl; 1.2 MgSO4; 1.2 NaH2PO4; 5.6 glucose; 20 NaHCO3; 10 BDM, and 5 taurine, bubbled with a 95% O2–5% CO2 mixture. Enzyme digestion was performed with collagenase type II (1 mg/mL; Worthington Biochemical Corp., Lakewood, NJ, USA) and protease type XIV (0.1 mg/mL; Sigma-Aldrich) as previously reported. Isolated cardiomyocytes were transferred to 1.5 mL Eppendorf tubes and preincubated with the heteroaryl acrylonitrile compounds.
Cardiomyocytes isolated from mdx mice were transferred to Eppendorf tubes to be incubated with 1 μM of the indole heteroaryl-acrylonitrile derivatives for 30 min, protected from light, at room temperature. VAS2870 (20 μM) was used as a positive control for NOX2 inhibition. 2′,7′-dichlorofluorescein diacetate (DCF-DA) (10 μM) was then added and incubated for 15 min. Subsequently, it was allowed to sediment by gravity to remove the supernatant, and the pellets obtained were in a phosphate saline solution (PBS). 200 μL of the cell suspension were placed on pre-treated polylysine slides (Thermo Fischer, USA) and fixed with 2% paraformaldehyde (Sigma-Aldrich®, St. Louis, MO, USA) for 10 min at 4 °C. […] From the acquired images, the fluorescence intensity was quantified at 495 nm, and the data were reported as fluorescence intensity per pixel.

SMILES: N#C/C(=C\c1cc(-c2ccccc2)on1)C(=O)c1c[nH]c2ccccc12 [Compound C6]
- antioxidant capacity, DPPH discoloration (in words) [1]: showed antioxidant capacity only at very high concentrations
- antioxidant effects in the pharmacological range (in words) [1]: minimal
- cytotoxicity (in words) (HL-60 cells): non-cytotoxic
- cytotoxicity (HL-60 cells; 1 µM (corresponding to the IC50 value)): about 55%
- DCF fluorescence intensity, NOX2-derived ROS (in words) [2]: significant decrease in fluorescence intensity

SMILES: N#C/C(=C\c1ccncc1)C(=O)c1c[nH]c2ccccc12 [Compound C14]
- antioxidant capacity, DPPH discoloration (in words) [1]: showed antioxidant capacity only at very high concentrations
- antioxidant capacity, DPPH discoloration ([1]; concentration range 30–300 μM): 12%
- antioxidant effects in the pharmacological range (in words) [1]: minimal
- cytotoxicity (in words) (HL-60 cells): non-cytotoxic
- DCF fluorescence intensity, NOX2-derived ROS (in words) [2]: significant decrease in fluorescence intensity
